Common to all, as to assay type: cell-based, human
For data set [1], the system named is hPSC-derived HSCs. Briefly: In vitro activation of quiescent HSCs. The following applies: for activation of hPSC-HSCs (COL1A1, FN, ACTA2 western blot): TGFβ1 5 ng/ml, FBS 10%, PDGF 30 ng/ml, 72 hrs. In general terms: In western blotting, separated proteins are transferred to a membrane and probed.
Data set [2] relates to hPSC-derived multicellular liver culture. Briefly: LPS treatment of multicellular liver culture. The text has this: FIG. 2. Characterization of the multicellular liver culture. (A) Albumin secretion from three-cell (HEP/HSC/Mac), two-cell (HEP/HSC), and HEP monoculture, n=3. (B) Analysis of CYP3A4 and CYP2B6 transcripts in hepatocytes, n=4. (C) Analysis of LRAT transcript in HSCs from three-cell (HSC/HEP/Mac), two-cell (HSC/HEP, HSC/Mac) and HSC monoculture, n=4. (D) Staining of lipid droplets, hepatocytes (ALB), and HSCs (PCDH7). (E) Analysis of IL10 transcript in individual cell-type at three-weeks post-coculture, n=4. (F) Analysis of IL6 and TNF transcripts in macrophages, n=4. Positive control: IFNγ-treated macrophages. (G) Cytokines analysis in liver cultures treated with LPS (500 ng/ml) or control, with or without macrophages, n=4. Data are mean±S.D; Student's t-test (two-tailed) with Welch's corrections (B); One-way ANOVA with Tukey's multiple comparisons test (A, C, E-G).
FIG. 10. Characterization of multicellular liver culture. (A). Transcript levels of PPARG were analyzed in purified HSCs from the hPSC-derived liver cultures with three-cell (HSC, HEP, and Mac), two-cell (HSC and HEP, HSC and Mac) and HSC monoculture at the indicated time points post co-culture by RT-qPCR. […] Transcript levels of IL10 and macrophages marker CD163 were analyzed in purified macrophages from the hPSC-derived liver cultures with three-cell (HSC, HEP, and Mac) and two-cell (Mac and HEP, Mac and HSC) by RT-qPCR. […] HSC activation markers FN and COL1A1 were analyzed by western blot in HSCs purified from three-cell (HEP, HSC and Mac) and two-cell (HSC and HEP, HSC and Mac) liver cultures treated with LPS (100 ng/ml) for one week. […] Transcript levels of TGFB1 and IL1B in pooled cells from the liver cultures of three-cell (HSC, HEP, and Mac) and two-cell (HSC and HEP) were analyzed at one week post LPS (100 ng/ml) treatment by RT-qPCR. […] Transcript levels of IL1B and TGFB1 in purified individual cells from liver cultures treated with either vehicle control or LPS (100 ng/ml) for one week were analyzed by RT-qPCR. Fold changes were calculated by normalized to individual cells treated with vehicle control. […]

For data set [3], the system named is Kupffer cells and hPSC-macrophages. Briefly: Stimulation of macrophages, cytokine transcripts by RT-qPCR. Particulars: LPS 100 ng/ml, 12 hrs. Background: Real-time PCR tracks product formation cycle by cycle.
Data set [4] concerns hPSC-derived and primary HSCs. Briefly: Cell migration (scratch) assay. The following applies: 48 hrs.
Data set [5] deals with PNPLA3^WT liver cultures. Briefly: IL6 supplementation of liver cultures. Here is the method: FIG. 15. Elevated IL6/STAT3 activity mediates the enhanced susceptibility to NAFLD phenotypes in PNPLA3^I148M liver cultures (A). Analysis of IL6 by ELISA in the supernatant of shRNA control (Ctrl) or sh-IL6 liver cultures maintained in lipotoxic condition for two weeks. Shown are mean±SD from 3 independent experiments. (B). From the experiment in (A), the transcript levels of CHI3L1 and CXCL10 in purified macrophages were analyzed by RT-qPCR. Shown are mean±SD from 3 independent experiments. (C-D). From the experiment in (A), HSCs were purified and subject to western blot analysis of STAT3 and phosphorylated STAT3 (T705) (C), and to RT-qPCR analysis of the transcript levels of inflammatory cytokine CCL5 and quiescent marker PPARG (D). For western blot, RPS11 was used as a loading control. For RT-qPCR, shown are mean±SD from 3 independent experiments. (E-H). The isogenic pair of liver cultures were maintained in lipotoxic condition for two weeks in the presence of either isotype control antibody (Ctrl) or IL6 neutralizing antibody (nIL6 Ab, 100 ng/ml). Individual cells were purified from these liver cultures and subject to RT-qPCR analysis of lipogenic-associated enzyme genes ACC1 and FASN in hepatocytes (E) and inflammatory cytokine CHI3L1 in macrophages (F), western blot analysis of HSC activation markers FN, COL1A1, and ACTA2 (G), and phosphorylated STAT3 (H) in HSCs. For western blot, RPS11 was used as a loading control. For RT-qPCR, shown are mean±SD from 3 independent experiments. (I-J). PNPLA3^WT liver cultures were treated with either healthy or lipotoxic condition for 5 days and then IL6 (100 pg/ml) was added to one set of lipotoxic treated cultures for additional 2 days. Hepatocytes were purified and subject to analysis for triacylglycerol (TAG) level (I), transcript levels of ACC1 and FASN (J) by RT-qPCR. For TAG quantification, shown are mean±SD for 4 independent experiments; for RT-qPCR, shown are mean±SD from 3 independent experiments. Statistical analysis was performed using a two-tailed unpaired t-test with Welch's corrections or One-way ANOVA/Tukey's multiple comparisons test to calculate exact p-values.
As a complementary approach, we determined if IL6 was sufficient to enhance NAFLD susceptibility in lipotoxic conditions by supplementing IL6 in PNPLA3^WT cultures to a level similar to that of PNPLA3^I148M cultures. We began after 5 days of lipotoxic exposure when disease phenotypes begin to manifest (FIG. 5B) and only maintained liver cultures for 2 more days to minimize the compounded effect of continuous IL6 secretion on our observations. […] Changes in glucose secretion were not detected, however, likely due to the brevity of IL6 supplementation.
Intracellular triacylglycerol levels were analyzed for hPSC-derived HEPs purified from different conditions using commercial kits (Promega) per the manufacturer's instructions.

Setting [6] is: lipotoxic 5 days, then IL6 100 pg/ml for 2 days.

Regarding lipopolysaccharide [LPS], in data set [1] (LPS 500 ng/ml, 12 hrs), the “cytokine induction in hPSC-HSCs (IL6, CXCL10 transcripts)” value was “induced cytokine”. In data set [2] (LPS 100 ng/ml, one week), the “HSC activation markers in liver culture” value is “elevated activation markers” and the “cytoplasmic lipid droplets in HSCs in liver culture” value is “lost cytoplasmic lipid droplets”. Further, in data set [2] (LPS treatment (500 ng/ml, FIG. 2G)), the “IL1β and TGFβ1 levels produced by liver cultures” value is given as “much higher levels”. For the same molecule, in data set [3], the “inflammatory cytokine transcription in macrophages (CXCL10, IL6, IL1B)” value is recorded as “transcribed inflammatory cytokines”.

Turning to `C[C@@H](N)[C@H]1CC[C@H](C(=O)Nc2ccncc2)CC1` [Y-27632, reference compound], the “motility of activated hPSC-HSCs (closure distance)” value in data set [4] (Y-27632 20 μM) is on record as “markedly inhibited”.

As to “TGFβ1: transforming growth factor beta 1, pro-fibrotic stimulus”, in data set [4] (activating stimulus, similar to pHSCs), the “motility of hPSC-HSCs (closure distance)” value is recorded as “enhanced motility”. Further, the “activation of hPSC-HSCs (COL1A1, FN, ACTA2 western blot)” value in data set [1] is reported as “clearly activated”.

In the case of “IL6: interleukin 6, cytokine supplemented to liver cultures”, in data set [5] (IL6-treated liver cultures), the “regulation of genes that drive the GO results of I148M homozygous patients” value was “readily regulated”. For the same molecule, the “activation of HSCs from PNPLA3^WT cultures” value in data set [5] (IL6 addition under lipotoxic conditions) was “dramatically activated”. In data set [5] (setting [6]), the “changes in glucose secretion” value is listed as “not detected”, the “intracellular TAG levels in PNPLA3^WT hepatocytes” value is “increased” and the “lipogenesis-associated enzyme expression in PNPLA3^WT hepatocytes” value is on record as “increased”.

B1: PDGF: platelet-derived growth factor, pro-fibrotic stimulus (protein, UniProt P01127 82-190, looked up)
Platelet-derived growth …: SLGSLTIAEPAMIAECKTRTEVFEISRRLIDRTNANFLVWPPCVEVQRCSGCCNNRNVQCRPTQVQLRPVQVRKIEIVRKKPIFKKATVTLEDHLACKCETVAAARPVT
modifications: homodimer PDGF-BB
notes: platelet-derived growth factor, pro-fibrotic stimulus
For B1, the “activation of hPSC-HSCs (COL1A1, FN, ACTA2 western blot)” value in data set [1] is on record as “clearly activated”.
